Measurements reported in article PMC8792998 (Journal of medicinal chemistry, 2021).

What was measured:
C. parvum [1] = assay: C. parvum time-kill curve; assay type: cell-based, Cryptosporidium parvum; conditions: for effect on parasite numbers in time-kill assay: compound added at multiples of EC90 24 hours after infection
C. parvum [2] = conditions: previous work, cited from earlier work
C. parvum [3] = assay: C. parvum-infected HCT-8 cell assay; assay type: cell-based, Cryptosporidium parvum; conditions: for fold loss of potency: Cp HCT-8 EC50, Table 1 linker SAR, comparator not given; for change of potency, in words: Cp HCT-8 assay, Table 1 linker SAR
[4] = molecular target: human potassium channel hERG (Homo sapiens, UniProt Q12809); assay: hERG [3H]-dofetilide competitive binding assay; conditions: 10 μM; inhibition of [3H]-dofetilide binding
[5] = molecular target: human p-glycoprotein (Pgp) multi-drug resistance (MDR) transporter (Homo sapiens, UniProt P08183); assay: MDR1 transporter assay; assay type: in vitro ADME; conditions: 10 μM, 2 hours
hERG [6] = molecular target: T1, hERG (Homo sapiens, UniProt Q12809); assay: hERG [3H]-dofetilide competitive binding assay; conditions: human, probe [3H]-dofetilide
hERG [7] = molecular target: T1, hERG; assay: hERG-CHO automated patch clamp electrophysiology; assay type: cell-based
[8] = tested on: human Ether-a-go-go-Related Gene (hERG); conditions: read-out: hERG IC50; reported value; cited from earlier work
HCT-8 cells = assay: Host cell toxicity, CellTiter AQueous colorimetric assay; assay type: cell-based, human
[9] = tested on: CYP1A2, CYP2B6, CYP2C8, CYP2D6, CYP3A4; assay: CYP inhibition panel at 10 μM, remaining isoforms; assay type: in vitro ADME; conditions: human
[10] = Mouse PK study, plasma and jejunum; assay type: in vivo, CD-1 mice; conditions: male, CD-1, mouse, iv, 1 mg/kg
C. parvum [11] = assay: NSG mouse model of C. parvum infection; conditions: 50 mg/kg twice daily by oral gavage, days 7-10; fecal qPCR; n=4

T1 sequence (Q12809 whole entry): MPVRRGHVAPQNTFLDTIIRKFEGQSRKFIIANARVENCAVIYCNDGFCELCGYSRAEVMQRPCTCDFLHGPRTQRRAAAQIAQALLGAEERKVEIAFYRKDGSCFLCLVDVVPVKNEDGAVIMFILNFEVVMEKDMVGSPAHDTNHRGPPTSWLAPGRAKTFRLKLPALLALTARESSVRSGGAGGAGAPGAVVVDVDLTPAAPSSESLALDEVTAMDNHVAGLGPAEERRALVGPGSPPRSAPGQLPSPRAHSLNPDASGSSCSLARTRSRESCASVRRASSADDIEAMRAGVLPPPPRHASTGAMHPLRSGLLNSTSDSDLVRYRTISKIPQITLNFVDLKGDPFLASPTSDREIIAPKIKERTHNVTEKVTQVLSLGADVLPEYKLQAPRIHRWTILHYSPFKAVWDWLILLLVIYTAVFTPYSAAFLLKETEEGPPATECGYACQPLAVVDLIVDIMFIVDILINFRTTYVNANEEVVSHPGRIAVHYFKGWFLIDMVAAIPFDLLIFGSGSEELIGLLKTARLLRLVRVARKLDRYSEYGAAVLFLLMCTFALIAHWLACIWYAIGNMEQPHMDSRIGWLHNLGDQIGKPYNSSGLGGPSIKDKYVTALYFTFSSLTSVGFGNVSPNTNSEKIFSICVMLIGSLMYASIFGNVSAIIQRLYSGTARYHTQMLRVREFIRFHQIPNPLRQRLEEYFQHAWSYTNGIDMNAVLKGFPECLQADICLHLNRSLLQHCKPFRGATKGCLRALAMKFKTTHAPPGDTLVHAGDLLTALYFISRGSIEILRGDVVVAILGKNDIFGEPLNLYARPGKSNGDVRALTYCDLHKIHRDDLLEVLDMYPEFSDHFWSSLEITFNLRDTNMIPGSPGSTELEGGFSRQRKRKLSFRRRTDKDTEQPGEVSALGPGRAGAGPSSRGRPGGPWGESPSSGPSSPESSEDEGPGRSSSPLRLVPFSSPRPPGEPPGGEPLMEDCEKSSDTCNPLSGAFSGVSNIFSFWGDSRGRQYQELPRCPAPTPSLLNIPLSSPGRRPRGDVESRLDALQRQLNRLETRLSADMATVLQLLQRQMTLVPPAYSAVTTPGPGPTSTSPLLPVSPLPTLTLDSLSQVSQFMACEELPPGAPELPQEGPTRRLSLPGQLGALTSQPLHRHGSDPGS
Sequence of human potassium channel hERG (Q12809 whole entry): as above

CC(=O)Oc1ccccc1C(=O)Nc1ncc([N+](=O)[O-])s1 [NTZ, nitazoxanide, reference compound]
host cell cytotoxicity in time-kill assay (C. parvum [1]; HCT-8 cultures): cytotoxic at concentrations above the EC90
effect on parasite numbers in time-kill assay (C. parvum [1]): blocked C. parvum growth without eliminating the parasite from HCT-8 cultures
EC50 (C. parvum [2]; read-out: EC50, parasite growth in vitro): 3.8 µM

O=C(c1ccc(Cl)c(Cl)c1)N1CCN(c2ccc3nncn3n2)CC1 [Compound 12b, 1-(3,4-dichlorobenzoyl)-4-{[1,2,4]triazolo[4,3-b]pyridazin-6-yl}piperazine]
fold loss of potency relative to 12a (C. parvum [3]; Cp HCT-8 EC50): > 100 fold

O=C(Cc1cccc(Cl)c1)N1CCN(c2ccc3nncn3n2)CC1 [Compound 29j, 2-(3-chlorophenyl)-1-(4-{[1,2,4]triazolo[4,3-b]pyridazin-6-yl}piperazin-1-yl)ethan-1-one]
fold less potent than chlorine in the 4-position (C. parvum [3]; Cp HCT-8 EC50, Table 2): 4 fold

O=C(Cc1ccc(Cl)c(Cl)c1)N1CCCN(c2ccc3nncn3n2)CC1 [Compound 12c, 2-(3,4-dichlorophenyl)-1-(4-{[1,2,4]triazolo[4,3-b]pyridazin-6-yl}-1,4-diazepan-1-yl)ethan-1-one]
fold loss of potency (C. parvum [3]): > 50 fold

CN(C(=O)N1CCN(c2ccc3nncn3n2)CC1)c1ccc(Cl)c(Cl)c1 [Compound 11, N-(3,4-dichlorophenyl)-N-methyl-4-{[1,2,4]triazolo[4,3-b]pyridazin-6-yl}piperazine-1-carboxamide]
change of potency, in words (C. parvum [3]): dramatic loss of potency

N-(3,4-dichlorophenyl)-4-{[1,2,4]triazolo[4,3-b]pyridazin-6-yl}cyclohex-3-ene-1-carboxamide [Compound 18a]
change of potency, in words (C. parvum [3]): equipotent to its N-linked counterpart 2
hERG binding, %inh [4]: 56%
MDCK-MDR Efflux Ratio [5]: 6.5

O=S(=O)(Cc1ccc(Cl)c(Cl)c1)N1CCN(c2ccc3nncn3n2)CC1 [Compound 13, 1-[(3,4-dichlorophenyl)methanesulfonyl]-4-{[1,2,4]triazolo[4,3-b]pyridazin-6-yl}piperazine]
change of potency, in words (C. parvum [3]): dramatic loss of potency

O=C(Cc1ccc(Cl)cc1)N1CCN(c2ccc3nncn3n2)CC1 [Compound 29i, 2-(4-chlorophenyl)-1-(4-{[1,2,4]triazolo[4,3-b]pyridazin-6-yl}piperazin-1-yl)ethan-1-one]
fold more potent than H (entry 1, 29a) (C. parvum [3]; Cp HCT-8 EC50, Table 2): 25 fold

O=C(Nc1ccc(Cl)c(Cl)c1)N1CCN(c2ccc3nncn3n2)CC1 [Compound 2, 4-([1,2,4]triazolo[4,3-b]pyridazin-6-yl)-N-(3,4-dichlorophenyl)piperazine-1-carboxamide]
effect on parasite numbers in time-kill assay (C. parvum [1]): parasite numbers declined exponentially
inhibition at 10 µM (hERG [6]): ~50%
inhibition at 1 µM (hERG [7]; human, CHO cells that express hERG): > 40%
fold more potent than MMV665917 (C. parvum [2]): about 4 fold

O=C(Nc1ccc(Cl)cc1)N1CCN(c2ccc3nncn3n2)CC1 [Compound 1, reference compound]
IC50 (hERG [7]): ~10 µM
hERG IC50 versus Cp EC90(free) ratio (hERG [7]; safety margin): ~ 4 fold
IC50 [8]: ~10 µM

O=C(Cc1ccc(Cl)c(Cl)c1)N1CCN(c2ccc3nncn3n2)CC1 [Compound 12a, 2-(3,4-Dichlorophenyl)-1-(4-{[1,2,4]triazolo[4,3-b]pyridazin-6-yl}piperazin-1-yl)ethan-1-one]
time of exposure to eliminate 99.9% of parasites (C. parvum [1]; based on estimated decay rate, at six times the EC90): ≤ 98 h
cytotoxicity in HCT-8 cells, in words (HCT-8 cells): non-cytotoxic in HCT-8 cells
IC50 (hERG [7]): ~8 µM
hERG margin using EC50, not corrected for plasma protein binding (hERG [7]; safety margin): > 40 fold
inhibition at 10 µM [9]: ≤ 10%
clearance ([10]; jejunum): 0.7 mL/min/kg
clearance at 6 h ([10]; plasma): 0.317 mL/min/kg
mice with no parasites detected ten days after completing treatment (C. parvum [11]): 3 of 4 and three of the four

2-(3,4-dichlorophenyl)-1-(2-methyl-4-{[1,2,4]triazolo[4,3-b]pyridazin-6-yl}piperazin-1-yl)ethan-1-one [Compound 10c]
fold loss of potency (C. parvum [3]): > 50 fold

CC1CN(c2ccc3nncn3n2)CCN1C(=O)Cc1ccc(Cl)c(Cl)c1 (stereo not shown) [Compound 12d, 2-(3,4-dichlorophenyl)-1-(2-methyl-4-{[1,2,4]triazolo[4,3-b]pyridazin-6-yl}piperazin-1-yl)ethan-1-one]
fold loss of potency (C. parvum [3]): > 50 fold

O=C(Nc1ccc(Cl)c(Cl)c1)N1CCCN(c2ccc3nncn3n2)CC1 [Compound 10b, N-(3,4-dichlorophenyl)-4-{[1,2,4]triazolo[4,3-b]pyridazin-6-yl}-1,4-diazepane-1-carboxamide]
fold loss of potency (C. parvum [3]): > 50 fold

O=C(Cc1ccc(F)cc1)N1CCN(c2ccc3nncn3n2)CC1 [Compound 29h, 2-(4-fluorophenyl)-1-(4-{[1,2,4]triazolo[4,3-b]pyridazin-6-yl}piperazin-1-yl)ethan-1-one]
fold more potent than H (entry 1, 29a) (C. parvum [3]; Cp HCT-8 EC50, Table 2): 18 fold
